# Literature values in patent US20250144250A1, “PH-SENSITIVE FLUOROPHORES” (The General Hospital Corporation, priority 2022, published 2025).
# Details: in DMSO; cited from earlier work
smiles,measurement,value
"CC1(C)C(/C=C/C=C/C=C/C=C2\N(CCCCS(=O)(=O)O)c3ccc4ccccc4c3C2(C)C)=[N+](CCCCS(=O)(=O)[O-])c2ccc3ccccc3c21 [ICG, indocyanine green]",fluorescence QY of calibration standard,13%
